From ChEMBL document CHEMBL1201862, “PubChem BioAssay data set” (2004)
Calls of active or inactive are those of the source.

Tests used:
[1] = A Cell Based Secondary Assay To Explore Cytotoxicity of Compounds that Sensitize Mycobacterium Tuberculosis to Beta-Lactam Antibiotics.; format: functional
[2] = molecular target: T1, Eukaryotic translation initiation factor 4H (Homo sapiens, UniProt Q15056); assay: inhibitors of translation initiation factor eIF4H – SAR follow-up (AID 435011); format: functional
[3] = molecular target: T2, Polyadenylate-binding protein 1 (Homo sapiens, UniProt P11940); assay: PABP inhibition in translation initiation, SAR follow-up (AID 435018); format: functional
[4] = molecular target: Nuclear receptor subfamily 5 group A member 2 (Homo sapiens, UniProt O00482); format: functional, cell-based;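 note: HEK293T cells transfected with LRH-1 and a StAR promoter luciferase reporter; potency for inhibitors that lower LRH-1 driven reporter light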
[5] = molecular target: Steroidogenic factor 1 (Homo sapiens, UniProt Q13285); assay: Counterscreen for inverse agonists of the liver receptor homolog-1 (LRH-1; NR5A2): Luminescence-based cell-based high throughput dose response assay to identify inverse agonists of the Steroidogenic Factor 1 Nuclear Receptor (SF1; NR5A1).; format: functional
[6] = nonselective StAR promoter luciferase inhibitors – cell-based, luminescence, luciferase reporter, counter-screen for LRH-1 inverse agonist project, dose response (AID 651969); format: functional
[7] = molecular target: Cyclin-dependent kinase 5/CDK5 activator 1 (Homo sapiens, UniProt Q00535); assay: blockade of human CDK5 activity – biochemical, cherry-picked samples, set 2, dose response (AID 504545)
[8] = molecular target: T3, Rac GTPase-activating protein 1 (Homo sapiens, UniProt Q9H0H5); assay: blockers of MgcRacGAP-driven Rac1 GTP hydrolysis – biochemical, ADP Hunter fluorescence, primary and confirmatory, confirmation (AID 624330); format: functional
T3 sequence (Q9H0H5 whole entry): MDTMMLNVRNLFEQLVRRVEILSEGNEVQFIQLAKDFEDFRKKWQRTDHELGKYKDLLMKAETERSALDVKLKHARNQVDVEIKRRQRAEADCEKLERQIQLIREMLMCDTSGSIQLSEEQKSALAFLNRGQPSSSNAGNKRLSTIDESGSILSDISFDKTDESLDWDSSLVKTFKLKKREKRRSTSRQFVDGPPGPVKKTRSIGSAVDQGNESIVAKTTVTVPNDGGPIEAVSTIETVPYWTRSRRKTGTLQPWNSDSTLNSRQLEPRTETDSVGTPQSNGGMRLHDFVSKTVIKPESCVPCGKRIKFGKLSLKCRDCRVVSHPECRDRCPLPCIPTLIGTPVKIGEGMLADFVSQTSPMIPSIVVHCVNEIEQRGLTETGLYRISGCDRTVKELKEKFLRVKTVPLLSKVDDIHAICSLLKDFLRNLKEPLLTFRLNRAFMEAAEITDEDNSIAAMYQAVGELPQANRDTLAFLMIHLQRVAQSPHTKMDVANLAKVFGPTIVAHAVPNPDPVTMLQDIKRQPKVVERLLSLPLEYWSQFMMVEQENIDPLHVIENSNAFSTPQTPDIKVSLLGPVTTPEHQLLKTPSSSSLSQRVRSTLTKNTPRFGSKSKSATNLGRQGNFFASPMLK

[9] = molecular target: Cystic fibrosis transmembrane conductance regulator/Golgi-associated PDZ and coiled-coil motif-containing protein (Homo sapiens, UniProt P13569+Q9HD26); assay: potency against CAL PDZ-peptide interaction – biochemical, fluorescence polarization, Cerulean-tagged CAL PDZ, cherry-picks, dose response (AID 504773)
[10] = molecular target: T4, Intestinal-type alkaline phosphatase (Homo sapiens, UniProt P09923); assay: Dose Response confirmation of uHTS hits from a small molecule inhibitors of human intestinal alkaline phosphatase via a luminescent assay. [Related pubchem assays (depositor defined):AID2544, AID2574]; format: functional
[11] = molecular target: T4, Intestinal-type alkaline phosphatase; assay: human intestinal alkaline phosphatase activators, dose response, biochemical, luminescence, uHTS hits (AID 463120); format: functional
[12] = molecular target: T1, Eukaryotic translation initiation factor 4H; assay: eIF4H binding inhibition – biochemical, uHTS, fluorescence polarization, translation initiation inhibitor project, primary screen (AID 2012)
[13] = molecular target: T2, Polyadenylate-binding protein 1; assay: blockers of PABP interaction with poly(A) – biochemical, fluorescence polarization, […] (AID 2014)
[14] = molecular target: DNA dC->dU-editing enzyme APOBEC-3A (Homo sapiens, UniProt P31941); assay: Dose Response confirmation of small molecule APOBEC3A DNA Deaminase Inhibitors via a fluorescence-based single-stranded DNA deaminase assay. [Related pubchem assays (depositor defined):AID493011, AID493024]; format: functional
[15] = molecular target: DNA dC->dU-editing enzyme APOBEC-3G (Homo sapiens, UniProt Q9HC16); format: functional;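 note: Dose-response counterscreen measuring inhibition of APOBEC3G DNA deaminase activity, run while confirming APOBEC3A inhibitors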
[16] = molecular target: Glucose-6-phosphate 1-dehydrogenase (Homo sapiens, UniProt P11413); assay: inhibition of Homo sapiens G6PD, dose series – biochemical, fluorescence, selectivity assay for P. falciparum G6PD inhibitor project, dose response (AID 504792); format: functional
[17] = molecular target: NACHT, LRR and PYD domains-containing protein 3 (Homo sapiens, UniProt Q96P20); assay: NALP3 inhibitors in yeast, dose response, luminescent (AID 488799); format: functional
[18] = molecular target: T5, Interleukin-8 (Homo sapiens, UniProt P10145); assay: SAR analysis of Tumor necrosis factor alpha (TNF-alpha) induced IL-8 secretion in MCF-7/NOD1 cells - Set 2. [Related pubchem assays (depositor defined):AID1575, AID2250, AID2260]; format: functional, cell-based
T5 sequence (P10145 whole entry): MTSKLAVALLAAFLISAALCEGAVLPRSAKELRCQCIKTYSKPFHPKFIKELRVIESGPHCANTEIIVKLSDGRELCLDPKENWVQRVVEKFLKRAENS

[19] = molecular target: T5, Interleukin-8; assay: SAR analysis of GM-Tri-DAP induced IL-8 secretion in MCF-7/NOD1 cells - Set 2. [Related pubchem assays (depositor defined):AID1575, AID1578, AID2333]; format: functional, cell-based
[20] = molecular target: Tumor necrosis factor (Homo sapiens, UniProt P01375); assay: analog potency on TNFa NF-kB signaling – cell-based, revised, SAR follow-up (AID 2337); format: functional
[21] = molecular target: T6, Nucleotide-binding oligomerization domain-containing protein 1 (Homo sapiens, UniProt Q9Y239); assay: blockers of NOD1 pathway activity – revised, SAR follow-up (AID 2333); format: functional
T6 sequence (Q9Y239 whole entry): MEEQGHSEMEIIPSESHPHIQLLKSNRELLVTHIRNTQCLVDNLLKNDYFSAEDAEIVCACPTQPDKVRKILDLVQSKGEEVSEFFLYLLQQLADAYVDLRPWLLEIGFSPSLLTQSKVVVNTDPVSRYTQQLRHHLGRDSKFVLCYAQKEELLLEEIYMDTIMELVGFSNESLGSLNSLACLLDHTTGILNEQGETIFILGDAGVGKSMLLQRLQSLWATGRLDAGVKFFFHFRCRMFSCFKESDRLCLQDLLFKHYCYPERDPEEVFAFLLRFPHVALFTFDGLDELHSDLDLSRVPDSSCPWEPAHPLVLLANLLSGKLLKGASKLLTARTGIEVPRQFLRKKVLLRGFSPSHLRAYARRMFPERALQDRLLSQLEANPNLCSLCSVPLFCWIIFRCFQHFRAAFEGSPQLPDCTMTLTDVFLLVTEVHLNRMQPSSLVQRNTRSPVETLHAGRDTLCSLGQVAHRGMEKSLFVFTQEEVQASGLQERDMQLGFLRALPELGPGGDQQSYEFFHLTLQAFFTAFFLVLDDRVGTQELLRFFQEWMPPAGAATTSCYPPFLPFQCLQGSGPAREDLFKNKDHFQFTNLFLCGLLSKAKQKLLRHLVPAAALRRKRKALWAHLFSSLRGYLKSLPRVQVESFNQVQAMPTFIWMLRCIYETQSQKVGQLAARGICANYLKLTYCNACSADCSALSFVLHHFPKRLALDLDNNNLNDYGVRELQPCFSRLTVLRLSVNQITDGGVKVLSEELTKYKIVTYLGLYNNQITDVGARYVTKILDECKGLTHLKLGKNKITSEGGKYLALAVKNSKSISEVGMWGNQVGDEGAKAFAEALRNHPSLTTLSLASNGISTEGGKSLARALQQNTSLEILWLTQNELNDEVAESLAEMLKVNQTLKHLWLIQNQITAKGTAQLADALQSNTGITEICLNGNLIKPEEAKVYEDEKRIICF

[22] = molecular target: Nucleotide-binding oligomerization domain-containing protein 2 (Homo sapiens, UniProt Q9HC29); assay: PubChem AID 2334; format: functional
[23] = system: HEK293; assay: cells; settings: Homo sapiens;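 note: cells exposed to compound for 14 hours overnight before viability readout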
[24] = blockers of SFLLRN-triggered platelet ATP secretion – cell-based, human platelets, luminescence, dry powder, dose response (AID 493100); format: functional
[25] = molecular target: Dual specificity protein phosphatase 3 (Homo sapiens, UniProt P51452); assay: inhibition constants for human DUSP3 – biochemical, colorimetric, SAR follow-up (AID 2004)
[26] = luciferase reporter signal suppression in cells – H4 neuroglioma cells, luminescence, dose response (AID 1990); format: functional, cell-based
[27] = luciferase reporter signal reduction – luminescence, H4-C neuroglioblastoma cells, dose response (AID 2458); format: functional, cell-based;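 note: H4 neuroglioblastoma cells stably carrying a luciferase reporter gene fusion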
[28] = cells; format: functional, cell-based
[29] = Luminescence Cell-Based Dose Response HTS to Identify Inhibitors of 5'UTR Stem-Loop Driven Prion Protein mRNA Translation in H4 Neuroglioblastoma Cells. [Related pubchem assays: 1827 (Project Summary), 1813 (Primary HTS)]; format: functional
[30] = alpha-synuclein stem-loop luciferase translation blockers – H4 neuroglioma cells, luminescence, confirmation (AID 1988); format: functional, cell-based
[31] = system: BJ; assay: cells; format: functional, cell-based; settings: Homo sapiens
[32] = Luminescence-based dose response cell-based high throughput screening assay for cytotoxic compounds using the IEC-6 intestinal epithelial cell line. [Related pubchem assays: 1858 (Summary AID.), 1825 (Counterscreen.), 1907 (Confirmation screen.)]; format: functional
[33] = alpha-synuclein stem-loop translation blockers – luminescence, H4 neuroglioblastoma cells, dose confirmation, confirmation (AID 2454); format: functional, cell-based;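 note: H4 neuroglioblastoma cells carrying an alpha-synuclein 5'UTR luciferase reporter; potency for inhibition of the luciferase signal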
[34] = HEK-293T viability loss after treatment – luminescence, T-cell screen hits, cytotoxicity control for TCR NF-kB inhibitor project, dose response (AID 489026); format: functional, cell-based;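 note: cells exposed to compound about 14 hours before the viability readout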
[35] = molecular target: T7, Eukaryotic translation initiation factor 2-alpha kinase 3 (Homo sapiens, UniProt Q9NZJ5); assay: Dose response cell-based high-throughput screening assay to measure PERK inhibition. [Related pubchem assays: 1416 ]; format: functional
[36] = molecular target: T7, Eukaryotic translation initiation factor 2-alpha kinase 3; assay: Counterscreen assay for PERK inhibitors: Dose response cell-based high throughput screening assay to measure inhibition of PERK at 6 hours. [Related pubchem assays: 1522, 1416 ]; format: functional
[37] = system: BJ; assay: growth inhibition of engineered Ras-driven BJ cells – cell-based, alamar blue fluorescence, cherrypicked samples, dose response (AID 2631); format: functional; settings: Homo sapiens;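 note: confirmatory dose-response assay in RAS-dependent BJ fibroblasts engineered with TERT, LT and ST, with cytotoxicity read by fluorescence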
[38] = system: P388/ADR; assay: cells; format: functional; settings: Mus musculus
[39] = system: SN12K1; assay: cells; format: functional; settings: Homo sapiens
[40] = system: P388; assay: cells; format: functional; settings: Mus musculus

T7 sequence (Q9NZJ5 whole entry): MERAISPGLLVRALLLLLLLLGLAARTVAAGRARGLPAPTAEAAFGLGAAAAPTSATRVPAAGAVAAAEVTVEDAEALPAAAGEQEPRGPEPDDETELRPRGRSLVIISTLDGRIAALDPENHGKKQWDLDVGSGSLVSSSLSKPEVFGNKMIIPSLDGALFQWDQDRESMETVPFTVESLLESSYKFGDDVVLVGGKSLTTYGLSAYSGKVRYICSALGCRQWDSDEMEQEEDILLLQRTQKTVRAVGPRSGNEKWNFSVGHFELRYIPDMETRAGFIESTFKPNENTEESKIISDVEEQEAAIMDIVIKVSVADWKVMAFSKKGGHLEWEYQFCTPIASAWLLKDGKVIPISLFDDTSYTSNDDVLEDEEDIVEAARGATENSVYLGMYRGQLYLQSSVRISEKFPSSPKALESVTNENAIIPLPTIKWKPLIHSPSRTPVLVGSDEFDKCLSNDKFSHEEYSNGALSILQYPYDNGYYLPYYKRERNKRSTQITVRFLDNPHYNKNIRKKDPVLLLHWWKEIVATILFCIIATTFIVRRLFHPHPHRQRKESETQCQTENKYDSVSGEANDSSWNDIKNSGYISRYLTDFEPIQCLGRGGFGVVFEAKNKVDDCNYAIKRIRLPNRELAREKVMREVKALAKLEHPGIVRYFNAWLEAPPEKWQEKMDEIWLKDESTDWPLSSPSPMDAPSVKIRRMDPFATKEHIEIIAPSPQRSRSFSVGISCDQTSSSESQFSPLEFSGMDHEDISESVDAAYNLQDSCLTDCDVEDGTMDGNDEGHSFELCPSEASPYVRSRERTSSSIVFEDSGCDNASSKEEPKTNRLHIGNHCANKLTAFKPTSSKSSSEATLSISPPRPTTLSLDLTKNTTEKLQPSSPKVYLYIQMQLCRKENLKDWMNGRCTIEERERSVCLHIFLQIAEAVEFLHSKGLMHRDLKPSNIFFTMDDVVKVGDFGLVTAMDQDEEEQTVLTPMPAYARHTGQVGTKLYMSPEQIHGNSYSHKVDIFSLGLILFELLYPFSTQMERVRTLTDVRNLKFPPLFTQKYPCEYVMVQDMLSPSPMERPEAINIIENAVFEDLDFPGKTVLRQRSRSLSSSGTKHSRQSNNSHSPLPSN
T4 sequence (P09923 whole entry): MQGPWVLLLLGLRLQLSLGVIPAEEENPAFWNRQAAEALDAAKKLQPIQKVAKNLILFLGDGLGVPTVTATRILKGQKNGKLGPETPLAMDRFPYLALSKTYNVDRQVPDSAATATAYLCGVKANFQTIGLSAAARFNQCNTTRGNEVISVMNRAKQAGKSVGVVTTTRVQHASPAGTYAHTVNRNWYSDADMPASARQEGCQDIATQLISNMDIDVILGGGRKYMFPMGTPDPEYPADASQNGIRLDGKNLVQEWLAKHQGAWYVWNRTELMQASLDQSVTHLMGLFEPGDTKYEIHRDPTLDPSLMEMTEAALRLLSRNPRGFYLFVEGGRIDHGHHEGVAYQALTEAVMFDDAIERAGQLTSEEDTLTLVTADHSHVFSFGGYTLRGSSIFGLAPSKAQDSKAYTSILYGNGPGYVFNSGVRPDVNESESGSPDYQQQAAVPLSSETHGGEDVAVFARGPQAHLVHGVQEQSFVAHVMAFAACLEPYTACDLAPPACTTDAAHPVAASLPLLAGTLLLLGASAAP
T2 sequence (P11940 whole entry): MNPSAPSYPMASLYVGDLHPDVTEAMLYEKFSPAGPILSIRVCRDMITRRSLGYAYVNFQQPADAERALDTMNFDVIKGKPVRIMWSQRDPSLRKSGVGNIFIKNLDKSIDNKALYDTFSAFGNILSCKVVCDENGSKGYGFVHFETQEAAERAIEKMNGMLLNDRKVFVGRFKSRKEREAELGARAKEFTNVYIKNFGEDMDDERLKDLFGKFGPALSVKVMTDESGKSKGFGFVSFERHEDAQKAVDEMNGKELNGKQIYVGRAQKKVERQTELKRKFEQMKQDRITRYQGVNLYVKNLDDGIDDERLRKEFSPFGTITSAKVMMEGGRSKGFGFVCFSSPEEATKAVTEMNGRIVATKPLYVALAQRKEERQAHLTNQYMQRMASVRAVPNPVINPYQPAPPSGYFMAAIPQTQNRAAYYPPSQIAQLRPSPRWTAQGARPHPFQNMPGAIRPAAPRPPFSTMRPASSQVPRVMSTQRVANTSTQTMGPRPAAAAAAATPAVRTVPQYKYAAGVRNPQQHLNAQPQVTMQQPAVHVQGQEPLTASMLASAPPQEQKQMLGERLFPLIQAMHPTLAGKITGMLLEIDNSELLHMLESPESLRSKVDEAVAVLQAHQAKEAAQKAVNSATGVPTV
Sequence of Glucose-6-phosphate 1-dehydrogenase (P11413 whole entry, the tested form may be a part): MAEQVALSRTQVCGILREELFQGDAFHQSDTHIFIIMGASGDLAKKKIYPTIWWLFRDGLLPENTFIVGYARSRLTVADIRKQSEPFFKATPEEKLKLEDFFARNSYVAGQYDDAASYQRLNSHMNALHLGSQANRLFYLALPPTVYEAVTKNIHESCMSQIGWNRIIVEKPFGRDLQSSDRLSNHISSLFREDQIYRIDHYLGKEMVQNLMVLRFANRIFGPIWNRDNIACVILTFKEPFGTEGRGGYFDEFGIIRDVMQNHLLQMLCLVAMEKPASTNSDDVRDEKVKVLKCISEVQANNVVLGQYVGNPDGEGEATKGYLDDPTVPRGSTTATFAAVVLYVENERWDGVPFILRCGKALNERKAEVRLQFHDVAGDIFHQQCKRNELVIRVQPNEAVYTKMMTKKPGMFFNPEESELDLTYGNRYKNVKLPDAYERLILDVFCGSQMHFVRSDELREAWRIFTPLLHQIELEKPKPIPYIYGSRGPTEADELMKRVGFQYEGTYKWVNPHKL
Sequence of Cystic fibrosis transmembrane conductance regulator/Golgi-associated PDZ and coiled-coil motif-containing protein (P13569 whole entry, other chains not shown): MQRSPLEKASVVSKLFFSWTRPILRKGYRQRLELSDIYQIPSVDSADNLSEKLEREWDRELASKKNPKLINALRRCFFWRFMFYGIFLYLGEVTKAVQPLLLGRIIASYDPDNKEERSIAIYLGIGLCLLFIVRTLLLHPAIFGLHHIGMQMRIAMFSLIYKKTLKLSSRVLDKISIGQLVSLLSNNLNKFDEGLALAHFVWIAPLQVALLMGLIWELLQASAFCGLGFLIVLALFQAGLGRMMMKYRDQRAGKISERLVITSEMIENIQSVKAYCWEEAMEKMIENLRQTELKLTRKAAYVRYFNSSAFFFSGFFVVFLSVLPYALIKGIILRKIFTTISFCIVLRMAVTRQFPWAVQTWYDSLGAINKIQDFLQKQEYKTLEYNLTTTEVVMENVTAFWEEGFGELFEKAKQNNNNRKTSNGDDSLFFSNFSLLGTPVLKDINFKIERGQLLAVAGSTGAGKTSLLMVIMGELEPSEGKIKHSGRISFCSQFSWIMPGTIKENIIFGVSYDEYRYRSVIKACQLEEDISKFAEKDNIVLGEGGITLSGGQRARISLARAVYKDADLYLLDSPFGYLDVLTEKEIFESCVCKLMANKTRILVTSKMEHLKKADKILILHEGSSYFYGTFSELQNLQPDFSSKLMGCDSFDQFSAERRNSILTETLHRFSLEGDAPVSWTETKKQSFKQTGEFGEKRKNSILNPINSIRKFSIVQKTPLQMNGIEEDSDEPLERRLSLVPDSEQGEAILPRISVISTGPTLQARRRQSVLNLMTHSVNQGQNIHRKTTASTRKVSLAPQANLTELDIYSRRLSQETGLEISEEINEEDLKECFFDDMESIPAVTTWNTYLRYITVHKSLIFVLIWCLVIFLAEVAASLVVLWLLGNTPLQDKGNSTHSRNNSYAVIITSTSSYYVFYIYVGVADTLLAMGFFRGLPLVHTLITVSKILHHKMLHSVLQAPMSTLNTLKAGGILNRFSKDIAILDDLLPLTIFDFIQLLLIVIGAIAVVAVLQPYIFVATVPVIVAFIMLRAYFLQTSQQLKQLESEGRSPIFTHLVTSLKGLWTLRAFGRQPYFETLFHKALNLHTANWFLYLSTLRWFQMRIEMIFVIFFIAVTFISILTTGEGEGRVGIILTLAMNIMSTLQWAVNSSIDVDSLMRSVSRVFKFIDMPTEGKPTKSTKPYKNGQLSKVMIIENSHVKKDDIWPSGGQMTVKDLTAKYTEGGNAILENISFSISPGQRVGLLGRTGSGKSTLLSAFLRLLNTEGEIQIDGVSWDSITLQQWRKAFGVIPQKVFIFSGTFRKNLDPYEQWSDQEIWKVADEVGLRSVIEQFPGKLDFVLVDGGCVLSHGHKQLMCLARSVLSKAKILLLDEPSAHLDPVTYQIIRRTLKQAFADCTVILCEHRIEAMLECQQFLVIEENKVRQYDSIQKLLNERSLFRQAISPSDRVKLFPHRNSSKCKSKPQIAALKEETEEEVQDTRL
Sequence of Dual specificity protein phosphatase 3 (P51452 whole entry): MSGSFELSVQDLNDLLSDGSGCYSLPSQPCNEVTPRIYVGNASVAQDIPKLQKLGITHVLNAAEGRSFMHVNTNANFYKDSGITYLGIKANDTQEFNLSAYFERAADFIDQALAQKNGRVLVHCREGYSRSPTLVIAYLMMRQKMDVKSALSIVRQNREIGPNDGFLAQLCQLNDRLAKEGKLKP
Sequence of Tumor necrosis factor (P01375 whole entry, the tested form may be a part): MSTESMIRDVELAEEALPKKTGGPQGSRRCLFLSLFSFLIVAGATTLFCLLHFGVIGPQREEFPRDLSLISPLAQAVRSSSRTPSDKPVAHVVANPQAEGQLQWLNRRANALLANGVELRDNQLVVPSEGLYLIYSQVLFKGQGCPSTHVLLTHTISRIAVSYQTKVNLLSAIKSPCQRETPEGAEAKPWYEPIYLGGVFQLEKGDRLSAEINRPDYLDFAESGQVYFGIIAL

Structure (SMILES): O=C(COc1ccccc1)Nc1cccc(-c2nnc(-c3ccccc3)o2)c1
- CC50 [1]: > 40 µM (active)

Structure (SMILES): CC(=O)Nc1ccc(NC(=O)CSc2ccc(-c3ccco3)nn2)cc1
- IC50 [2]: 31.1 µM (active)
- IC50 [3]: > 100 µM (inactive)
- IC50 [4]: 35.9 µM (inactive)
- IC50 [5]: 35.9 µM (inactive)
- IC50 [6]: 35.9 µM (inactive)

Structure (SMILES): ON=C1c2ccccc2-c2ccc(O)cc21
- AC50 [7]: 17.6 µM (active)
- IC50 [8]: 23.6 µM (active)

Structure (SMILES): O=C1CC(c2ccccc2)=C(c2ccccc2)C1
- AC50 [9]: 18.7 µM (active)

Structure (SMILES): O=S(=O)(c1ccccc1)N1CCCC1c1cccs1 (configuration not stated)
- IC50 [10]: > 100 µM (inactive)
- EC50 [11]: > 100 µM (inactive)

Structure (SMILES): Cn1ccccc1=Nc1cccc[n+]1C
- IC50 [12]: > 100 µM (inactive)
- IC50 [13]: 6.54 µM (active)
- IC50 [14]: 2.8 µM (active)
- IC50 [15]: 4.12 µM (active)

Structure (SMILES): Cc1nc2ccc(Nc3nc4cc(S(=O)(=O)N5CCOCC5)ccc4o3)cc2s1
- IC50 [16]: > 80 µM (inactive)
- IC50 [17]: > 100 µM (inactive)

Structure (SMILES): COc1ccc(C(=O)Cn2c(N)nc3ccccc32)cc1
- IC50 [18]: > 25 µM (inactive)
- IC50 [19]: > 25 µM (inactive)
- IC50 [20]: > 20 µM (inactive)
- IC50 [21]: > 20 µM (inactive)
- IC50 [22]: > 20 µM (inactive)
- IC50 [23]: > 20 µM (inactive)

Structure (SMILES): O=C(Nc1cccc(NC(=O)C2CCCC2)c1)c1ccccc1Br
- AC50 [24]: 8.81 µM (active)

Structure (SMILES): CCN(CC)c1ccc(Nc2nc(-c3sc(N)nc3C)cs2)cc1
- Ki [25]: 30.2 µM (inactive)

Structure (SMILES): CSc1nc(N(C)NC(=O)c2cccc(C)c2)c2ccccc2n1
- EC50 [26]: < 0.1 µM (active)
- EC50 [27]: 0.087 µM (active)
- EC50 [28]: 0.104 µM (active)
- EC50 [29]: < 0.1 µM (active)
- EC50 [30]: < 0.1 µM (active)
- EC50 [31]: 0.272 µM (active)
- IC50 [32]: 0.14 µM (active)
- EC50 [33]: 0.073 µM (active)
- IC50 [34]: > 80 µM (inactive)

Structure (SMILES): CC[C@@]1(O)C(=O)OCc2c1cc1n(c2=O)Cc2cc3ccccc3nc2-1 [CAMPTOTHECIN]
- EC50 [26]: 0.134 µM (active)
- EC50 [35]: > 55.7 µM (not active)
- EC50 [30]: < 0.1 µM (active)
- EC50 [36]: > 55.7 µM (not active)
- EC50 [37]: 0.00767 µM (active)
- GI50 [38]: 0.0254 µM (active)
- GI50 [39]: 0.0245 µM (active)
- GI50 [40]: 0.0267 µM (active)
